Results: the supplement of paper PMC10307832

Legend:
Assay in all cases: relative viability (nuclei count vs DMSO), 5 days (fraction); higher = more cells survive
EPLC-272H = tested on: EPLC-272H
Procedure, shortened: (§1)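 Relative viability is defined as nuclei in treated wells over nuclei in vehicle wells. Duplicate plates were run and medians reported. Lung cancer cell lines in 1536-well plates were dosed by pin tool one day after seeding, with one drug or with a fixed anchor-drug dose plus five library-drug doses (not always all listed) in √10 steps, and nuclei were counted after 5 days.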

NCI-H2009 = tested on: NCI-H2009
Procedure, shortened: as §1

LOU-NH91 = tested on: LOU-NH91
Procedure, shortened: as §1

NCI-H2023 = tested on: NCI-H2023
Procedure, shortened: as §1

EMC-BAC-2 = tested on: EMC-BAC-2
Procedure, shortened: as §1

HOP-62 = tested on: HOP-62
Procedure, shortened: as §1

NCI-H460 = tested on: NCI-H460
Procedure, shortened: as §1

NCI-H727 = tested on: NCI-H727
Procedure, shortened: as §1

NCI-H2170 = tested on: NCI-H2170
Procedure, shortened: as §1

NCI-H23 = tested on: NCI-H23
Procedure, shortened: as §1

SW 1573 = tested on: SW 1573
Procedure, shortened: as §1

NCI-H441 = tested on: NCI-H441
Procedure, shortened: as §1

ChaGo-K-1 = tested on: ChaGo-K-1
Procedure, shortened: as §1

NCI-H650 = tested on: NCI-H650
Procedure, shortened: as §1

NCI-H2126 = tested on: NCI-H2126
Procedure, shortened: as §1

NCI-H647 = tested on: NCI-H647
Procedure, shortened: as §1

NCI-H2347 = tested on: NCI-H2347
Procedure, shortened: as §1

HCC-44 = tested on: HCC-44
Procedure, shortened: as §1

NCI-H1437 = tested on: NCI-H1437
Procedure, shortened: as §1

NCI-H1793 = tested on: NCI-H1793
Procedure, shortened: as §1

NCI-H520 = tested on: NCI-H520
Procedure, shortened: as §1

LCLC-103H = tested on: LCLC-103H
Procedure, shortened: as §1

NCI-H2405 = tested on: NCI-H2405
Procedure, shortened: as §1

## O=C(O)CCCCC(CCSCc1ccccc1)SCc1ccccc1 (stereo not given) [CPI-613] + Nc1ncn([C@H]2C[C@H](O)[C@@H](CO)O2)c(=O)n1 [Decitabine] (partner 2 µM)
EPLC-272H; first compound 5 µM
  relative viability: 0.358
EPLC-272H; first compound 15.81 µM
  relative viability: 0.386
EPLC-272H; first compound 50 µM
  relative viability: 0.429
EPLC-272H; first compound 158.11 µM
  relative viability: 0.343
EPLC-272H; first compound 500 µM
  relative viability: 0.319
NCI-H2009; first compound 5 µM
  relative viability: 0.393
NCI-H2009; first compound 15.81 µM
  relative viability: 0.397
NCI-H2009; first compound 50 µM
  relative viability: 0.385
NCI-H2009; first compound 158.11 µM
  relative viability: 0.228
NCI-H2009; first compound 500 µM
  relative viability: 0.0406
LOU-NH91; first compound 5 µM
  relative viability: 0.794
LOU-NH91; first compound 15.81 µM
  relative viability: 0.783
LOU-NH91; first compound 50 µM
  relative viability: 0.819
LOU-NH91; first compound 158.11 µM
  relative viability: 0.765
LOU-NH91; first compound 500 µM
  relative viability: 0.683
NCI-H2023; first compound 5 µM
  relative viability: 0.215
NCI-H2023; first compound 15.81 µM
  relative viability: 0.257
NCI-H2023; first compound 50 µM
  relative viability: 0.244
NCI-H2023; first compound 158.11 µM
  relative viability: 0.0918
NCI-H2023; first compound 500 µM
  relative viability: 0.0147
EMC-BAC-2; first compound 5 µM
  relative viability: 0.982
EMC-BAC-2; first compound 15.81 µM
  relative viability: 0.9
EMC-BAC-2; first compound 50 µM
  relative viability: 0.942
EMC-BAC-2; first compound 158.11 µM
  relative viability: 0.74
EMC-BAC-2; first compound 500 µM
  relative viability: 0.632
HOP-62; first compound 5 µM
  relative viability: 0.186
HOP-62; first compound 15.81 µM
  relative viability: 0.235
HOP-62; first compound 50 µM
  relative viability: 0.191
HOP-62; first compound 158.11 µM
  relative viability: 0.173
HOP-62; first compound 500 µM
  relative viability: 0.0675
NCI-H460; first compound 5 µM
  relative viability: 0.513
NCI-H460; first compound 15.81 µM
  relative viability: 0.396
NCI-H460; first compound 50 µM
  relative viability: 0.456
NCI-H460; first compound 158.11 µM
  relative viability: 0.115
NCI-H460; first compound 500 µM
  relative viability: 0.0075
NCI-H727; first compound 5 µM
  relative viability: 0.803
NCI-H727; first compound 15.81 µM
  relative viability: 0.786
NCI-H727; first compound 50 µM
  relative viability: 0.894
NCI-H727; first compound 158.11 µM
  relative viability: 0.776
NCI-H727; first compound 500 µM
  relative viability: 0.828
NCI-H2170; first compound 5 µM
  relative viability: 0.458
NCI-H2170; first compound 15.81 µM
  relative viability: 0.484
NCI-H2170; first compound 50 µM
  relative viability: 0.486
NCI-H2170; first compound 158.11 µM
  relative viability: 0.342
NCI-H2170; first compound 500 µM
  relative viability: 0.199
NCI-H23; first compound 5 µM
  relative viability: 0.34
NCI-H23; first compound 15.81 µM
  relative viability: 0.321
NCI-H23; first compound 50 µM
  relative viability: 0.326
NCI-H23; first compound 158.11 µM
  relative viability: 0.155
NCI-H23; first compound 500 µM
  relative viability: 0.0289
SW 1573; first compound 5 µM
  relative viability: 0.437
SW 1573; first compound 15.81 µM
  relative viability: 0.399
SW 1573; first compound 50 µM
  relative viability: 0.498
SW 1573; first compound 158.11 µM
  relative viability: 0.207
SW 1573; first compound 500 µM
  relative viability: 0.0549
NCI-H441; first compound 5 µM
  relative viability: 0.261
NCI-H441; first compound 15.81 µM
  relative viability: 0.253
NCI-H441; first compound 50 µM
  relative viability: 0.231
NCI-H441; first compound 158.11 µM
  relative viability: 0.148
NCI-H441; first compound 500 µM
  relative viability: 0.0077
ChaGo-K-1; first compound 5 µM
  relative viability: 0.489
ChaGo-K-1; first compound 15.81 µM
  relative viability: 0.517
ChaGo-K-1; first compound 50 µM
  relative viability: 0.514
ChaGo-K-1; first compound 158.11 µM
  relative viability: 0.274
ChaGo-K-1; first compound 500 µM
  relative viability: 0.161
NCI-H650; first compound 5 µM
  relative viability: 0.314
NCI-H650; first compound 15.81 µM
  relative viability: 0.295
NCI-H650; first compound 50 µM
  relative viability: 0.299
NCI-H650; first compound 158.11 µM
  relative viability: 0.321
NCI-H650; first compound 500 µM
  relative viability: 0.288
NCI-H2126; first compound 5 µM
  relative viability: 0.536
NCI-H2126; first compound 15.81 µM
  relative viability: 0.578
NCI-H2126; first compound 50 µM
  relative viability: 0.599
NCI-H2126; first compound 158.11 µM
  relative viability: 0.188
NCI-H2126; first compound 500 µM
  relative viability: 0.132
NCI-H647; first compound 5 µM
  relative viability: 0.345
NCI-H647; first compound 15.81 µM
  relative viability: 0.462
NCI-H647; first compound 50 µM
  relative viability: 0.352
NCI-H647; first compound 158.11 µM
  relative viability: 0.0749
NCI-H647; first compound 500 µM
  relative viability: 0.0141
NCI-H2347; first compound 5 µM
  relative viability: 0.652
NCI-H2347; first compound 15.81 µM
  relative viability: 0.553
NCI-H2347; first compound 50 µM
  relative viability: 0.706
NCI-H2347; first compound 158.11 µM
  relative viability: 0.614
NCI-H2347; first compound 500 µM
  relative viability: 0.347
HCC-44; first compound 5 µM
  relative viability: 0.877
HCC-44; first compound 15.81 µM
  relative viability: 1.01
HCC-44; first compound 50 µM
  relative viability: 0.922
HCC-44; first compound 158.11 µM
  relative viability: 0.828
HCC-44; first compound 500 µM
  relative viability: 0.779
NCI-H1437; first compound 5 µM
  relative viability: 0.491
NCI-H1437; first compound 15.81 µM
  relative viability: 0.542
NCI-H1437; first compound 50 µM
  relative viability: 0.567
NCI-H1437; first compound 158.11 µM
  relative viability: 0.207
NCI-H1437; first compound 500 µM
  relative viability: 0.0486
NCI-H1793; first compound 5 µM
  relative viability: 0.468
NCI-H1793; first compound 15.81 µM
  relative viability: 0.51
NCI-H1793; first compound 50 µM
  relative viability: 0.539
NCI-H1793; first compound 158.11 µM
  relative viability: 0.25
NCI-H1793; first compound 500 µM
  relative viability: 0.108
NCI-H520; first compound 5 µM
  relative viability: 0.48
NCI-H520; first compound 15.81 µM
  relative viability: 0.502
NCI-H520; first compound 50 µM
  relative viability: 0.428
NCI-H520; first compound 158.11 µM
  relative viability: 0.271
NCI-H520; first compound 500 µM
  relative viability: 0.149
LCLC-103H; first compound 5 µM
  relative viability: 0.753
LCLC-103H; first compound 15.81 µM
  relative viability: 0.77
LCLC-103H; first compound 50 µM
  relative viability: 0.714
LCLC-103H; first compound 158.11 µM
  relative viability: 0.29
LCLC-103H; first compound 500 µM
  relative viability: 0.288
NCI-H2405; first compound 5 µM
  relative viability: 0.754
NCI-H2405; first compound 15.81 µM
  relative viability: 0.72
NCI-H2405; first compound 50 µM
  relative viability: 0.709
NCI-H2405; first compound 158.11 µM
  relative viability: 0.674
NCI-H2405; first compound 500 µM
  relative viability: 0.535
